Several values for one entry are separate records, joined by “and”; a condition that tells them apart may be missing. Identical values can stand only once.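 Growth conditions: 96-well plates. Treatment: test compound, 48 hours, 5 concentrations. Analysis: linear interpolation between bracketing concentrations; unreached endpoints set to highest concentration. GI50 marks 50% less growth. TGI denotes the concentration required for complete inhibition of growth.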
Experiments:
Assay in all cases: DTP human tumour cell line panel, 48 h
HS 578T breast = system: HS 578T breast
MCF7 breast = system: MCF7 breast
SN12C renal = system: SN12C renal
OVCAR-8 ovarian = system: OVCAR-8 ovarian
KM12 colon = system: KM12 colon
HT29 colon = system: HT29 colon
HOP-62 NSCLC = system: HOP-62 NSCLC
HCC-2998 colon = system: HCC-2998 colon

SMILES | GI50 (HS 578T breast) | TGI (HS 578T breast) | GI50 (MCF7 breast) | TGI (MCF7 breast) | GI50 (SN12C renal) | TGI (SN12C renal) | GI50 (OVCAR-8 ovarian) | TGI (OVCAR-8 ovarian) | GI50 (KM12 colon) | TGI (KM12 colon) | GI50 (HT29 colon) | TGI (HT29 colon) | GI50 (HOP-62 NSCLC) | TGI (HOP-62 NSCLC) | GI50 (HCC-2998 colon) | TGI (HCC-2998 colon)
Oc1ccc2oc3ncc(Cl)c(-c4ccccc4)c3c2c1 | > 100 µM | > 100 µM | > 100 µM | > 100 µM | > 100 µM | > 100 µM | > 100 µM | > 100 µM | > 100 µM | > 100 µM | > 100 µM | > 100 µM |  |  |  | 
COc1ccc(-c2nn(-c3cccc(Cl)c3)cc2C=C(C#N)C#N)cc1 | 1.57 µM | 7.04 µM | 2.35 µM | 7.72 µM | 3.35 µM | > 100 µM | 2.2 µM | 5.77 µM | 2.83 µM | 8.86 µM | 2.48 µM | 5.56 µM | 2.59 µM | 6.04 µM | 3.67 µM | 14 µM
O=C(c1ccccc1Nc1ccnc(C(F)(F)F)c1)N1CCN(c2cccc(Cl)c2)CC1 | 17.3 µM | 89.2 µM | 18 µM | 80 µM | 16.4 µM | 45 µM | 24.4 µM | > 87.8 µM | 25.7 µM | > 80.2 µM | 19.2 µM | 53.3 µM | 28.2 µM | > 100 µM | 24.6 µM | > 72.9 µM
CC1(C)CCC[C@]23C(=O)O[C@](O)(C(=O)C4=C[C@@](C)(/C=C/CCCc5ccc6ccc7cccc8ccc5c6c78)CC[C@@]42O)[C@@H]13 | 0.251 µM | 0.812 µM |  |  | 0.164 µM | 0.339 µM | 0.25 µM | 1.15 µM | 0.154 µM | 0.34 µM | 0.235 µM | 0.603 µM | 0.215 µM | 0.563 µM | 0.176 µM | 0.323 µM
S=c1nc[nH]c2c1ncn2Cc1ccco1 |  | > 100 µM |  | > 100 µM |  | > 100 µM |  | > 100 µM |  | > 100 µM |  | > 100 µM |  | > 100 µM |  | > 100 µM
O=C1c2ccccc2C(=O)c2c1ccc(C(Br)Br)c2[N+](=O)[O-] | 2.28 µM | 6.75 µM | 0.598 µM | 2.54 µM | 1.83 µM | 3.86 µM | 1.95 µM | 4.35 µM | 1.85 µM | 3.81 µM | 1.72 µM | 3.24 µM | 1.42 µM | 2.99 µM | 2.08 µM | 4.6 µM
CN(C)c1ccc(/C=C2\C[C@H]3[C@@H]4CC=C5C[C@@H](N6CCCC6)CC[C@]5(C)[C@H]4CC[C@]3(C)[C@H]2O)cc1 | 2.83 µM | 2.5 µM and 7.93 µM |  | 12.5 µM | 2.42 µM | 3.3 µM and 5.6 µM | 2.87 µM | 1.75 µM and 5.47 µM | 5.48 µM | 10.7 µM and 50.9 µM | 3.17 µM | 3.54 µM and 15.1 µM | 2.98 µM | 7.14 µM and 12.9 µM |  | 1.86 µM
COc1ccc(N2CCN(C(=O)c3ccccc3Nc3ccnc(C(F)(F)F)c3)CC2)cc1 | 60.6 µM | > 100 µM | 36.4 µM | > 100 µM | 64.4 µM | > 100 µM | 40.7 µM | > 100 µM | 76.9 µM | > 100 µM | 77.1 µM | > 100 µM | 54.8 µM | > 100 µM | > 100 µM | > 100 µM
CC(C)C[C@H](NC(=O)[C@H](CCc1ccccc1)NC(=O)CN1CCOCC1)C(=O)N[C@@H](Cc1ccccc1)C(=O)N[C@@H](CC(C)C)C(=O)[C@@]1(C)CO1 | 0.0224 µM | 3.34 µM | < 0.01 µM | 5.41 µM | < 0.0132 µM | 0.0349 µM | 0.0204 µM | 0.0952 µM | < 0.01 µM | 0.0199 µM | < 0.01 µM | 0.0471 µM | < 0.0139 µM | < 0.0229 µM | < 0.0118 µM | 0.0227 µM
O=[N+]([O-])c1cccc([N+](=O)[O-])c1S(=O)(=O)c1ccccc1 |  | 43.9 µM |  | 43.1 µM |  | 12.3 µM |  | 6.21 µM |  | 32 µM |  | 36.2 µM |  | 35.1 µM |  | 
CCN(CC)CCN1C(=O)c2c(c(C)c3c(oc4cc(O)ccc43)c2C)C1=O |  |  | 1.65 µM | 3.32 µM | 1.63 µM | 3.11 µM | 2.11 µM | 5.72 µM | 1.82 µM | 3.74 µM | 2.14 µM | 5.41 µM | 2.06 µM | 4.84 µM | 1.62 µM | 3.03 µM
Nc1ncnc2c1c(C(F)(F)F)cn2[C@@H]1O[C@H](CO)[C@@H](O)[C@H]1O | 0.813 µM | 7.54 µM | 0.0405 µM | > 86.3 µM | 0.157 µM | > 100 µM | 0.595 µM | > 100 µM | 0.134 µM |  |  |  | 0.278 µM | > 100 µM | 0.633 µM | 12.8 µM
CCOC(=O)c1sc(-c2ccc(OS(=O)(=O)c3cccs3)c(C=O)c2)nc1C | 2.1 µM | 5.3 µM | 1.88 µM | 4.51 µM | 1.98 µM | 5.75 µM |  |  | 1.47 µM | 3.24 µM |  |  |  |  |  | 
COc1ccc(-c2oc(=O)ccc2C#Cc2cc(OC)c(OC)c(OC)c2)cc1O | 30.2 µM | > 100 µM | 15.9 µM | 51.7 µM | 41.5 µM | > 100 µM | 35.2 µM | > 100 µM | 50 µM | > 100 µM | 37.9 µM | > 100 µM | 18.5 µM | 87.4 µM |  | 
O=c1[nH]cc(CS(=O)(=O)Cc2c[nH]c(=O)[nH]c2=O)c(=O)[nH]1 |  | > 100 µM |  | > 100 µM |  | > 100 µM |  | > 100 µM |  | > 100 µM |  | > 100 µM |  |  |  | 
O=NC1c2cccc3cccc(c23)C1N=O (stereo not given) |  | 75.7 µM |  | 25.8 µM |  |  |  | 6.65 µM |  | 17 µM |  | 23.7 µM |  | 19.5 µM |  | 
Cc1ccc2c(c1)C(=O)c1c-2n(CCCN)c(=O)c2cc([N+](=O)[O-])ccc12 | 1.54 µM | 3.44 µM | 0.113 µM | 0.836 µM | 0.281 µM | 1.02 µM | 0.387 µM | 1.33 µM | 0.433 µM | 1.23 µM |  |  | 0.0389 µM | 0.428 µM | 0.531 µM | 1.17 µM

Source: PubChem BioAssay (NCI)
